Test results taken from PubChem BioAssay AID651856 (Broad Institute, 2012).

Tested on: non-replicating M. tuberculosis, luciferase expression
Test: non-replicating M. tuberculosis inhibition, confirmation, luciferase expression (AID 651856)

| Compound | IC90 [µM] |
| --- | --- |
| O=S(=O)(Cc1ccccc1)c1nnc(-c2ccccc2)o1 | 4 |
| Clc1ccc(-c2nnc(SCc3cn(Cc4ccccc4)nn3)o2)cc1 | 4 |
| O=S(Cc1cn(Cc2ccc(F)cc2)nn1)c1nnc(-c2ccc(Cl)cc2)o1 (stereo not drawn) | 4 |
| O=S(Cc1ccccc1)c1nnc(-c2ccccc2)o1 (stereo not drawn) | 1 |
| O=S(=O)(Cc1cn(Cc2ccccc2)nn1)c1nnc(-c2ccc(Cl)cc2)o1 | 8 |
| c1ccc(CSc2nnc(-c3ccccc3)o2)cc1 | 16 |
| Fc1ccc(Cn2cc(CSc3nnc(-c4ccc(Cl)cc4)o3)nn2)cc1 | 2 |
| O=S(Cc1cn(Cc2ccccc2)nn1)c1nnc(-c2ccc(Cl)cc2)o1 (stereo not drawn) | 1 |
